Measured values as given in the NIST ThermoML archive (doi:10.1021/je600557n).

What was measured:
[1] = molar heat capacity at constant pressure; xn = mol fraction of the nth substance listed; details: 101 kPa, Liquid, Small sample (50 mg) DSC
[2] = refractive index (Na D-line) (dimensionless); xn = mol fraction of the nth substance listed; details: 101 kPa, Liquid, Standard Abbe refractometry
[3] = xn = mol fraction of the nth substance listed; details: 101 kPa, Liquid

CC1CCCO1 (stereo not drawn) [2-methyltetrahydrofuran] + C[S+](C)[O-]
Details	mass density, [3] [kg/m3]	molar heat capacity at constant pressure, [1] [J/K/mol]	refractive index, [2]	viscosity, [3] [mPa·s]
293.15 K, x2 = 0.0675	865.78	–	1.4121	0.537
293.15 K, x2 = 0.1033	–	155.2	–	–
293.15 K, x2 = 0.1168	875.28	–	1.4152	0.561
293.15 K, x2 = 0.1368	–	155.1	–	–
293.15 K, x2 = 0.2208	896.02	–	1.4215	0.631
293.15 K, x2 = 0.2714	–	155	–	–
293.15 K, x2 = 0.3228	917.54	–	1.4282	0.719
293.15 K, x2 = 0.3775	–	154.6	–	–
293.15 K, x2 = 0.4044	935.66	–	1.4336	0.78
293.15 K, x2 = 0.4694	950.78	–	1.438	0.876
293.15 K, x2 = 0.4881	–	154.2	–	–
293.15 K, x2 = 0.5058	959.5	–	1.4407	0.926
293.15 K, x2 = 0.5877	–	153.8	–	–
293.15 K, x2 = 0.5888	980.16	–	1.4468	1.047
293.15 K, x2 = 0.6274	–	153.6	–	–
293.15 K, x2 = 0.6692	1001.25	–	1.4527	1.194
293.15 K, x2 = 0.6833	–	153.2	–	–
293.15 K, x2 = 0.7448	1022.04	–	1.4589	1.354
293.15 K, x2 = 0.7593	–	152.9	–	–
293.15 K, x2 = 0.8192	1043.57	–	1.4651	1.55
293.15 K, x2 = 0.8559	–	152	–	–
293.15 K, x2 = 0.9343	–	151.2	–	–
293.15 K, x2 = 0.9523	1084.75	–	1.477	2.004
293.15 K, x2 = 0.9687	–	150.8	–	–
303.15 K, x2 = 0.0609	854.29	–	1.4055	0.468
303.15 K, x2 = 0.1033	–	158.4	–	–
303.15 K, x2 = 0.1281	867.26	–	1.4096	0.501
303.15 K, x2 = 0.1368	–	158.3	–	–
303.15 K, x2 = 0.2161	884.84	–	1.4152	0.554
303.15 K, x2 = 0.2714	–	157.7	–	–
303.15 K, x2 = 0.3184	906.38	–	1.4216	0.628
303.15 K, x2 = 0.3775	–	157.3	–	–
303.15 K, x2 = 0.4156	928.04	–	1.4281	0.71
303.15 K, x2 = 0.4881	–	156.7	–	–
303.15 K, x2 = 0.5105	950.44	–	1.4349	0.807
303.15 K, x2 = 0.5491	959.9	–	1.4378	0.852
303.15 K, x2 = 0.584	968.73	–	1.4405	0.896
303.15 K, x2 = 0.5877	–	156.1	–	–
303.15 K, x2 = 0.6274	–	155.8	–	–
303.15 K, x2 = 0.6652	989.97	–	1.4469	1.013
303.15 K, x2 = 0.6833	–	155.4	–	–
303.15 K, x2 = 0.7439	1011.62	–	1.4535	1.149
303.15 K, x2 = 0.7593	–	154.7	–	–
303.15 K, x2 = 0.8161	1032.51	–	1.4595	1.286
303.15 K, x2 = 0.8558	–	153.8	–	–
303.15 K, x2 = 0.9343	–	152.9	–	–
303.15 K, x2 = 0.9427	1071.55	–	1.4703	1.623
303.15 K, x2 = 0.9687	–	152.7	–	–
313.15 K, x2 = 0.0723	846.13	–	1.4004	0.428
313.15 K, x2 = 0.1033	–	161.5	–	–
313.15 K, x2 = 0.1209	855.52	–	1.4034	0.452
313.15 K, x2 = 0.1368	–	161.3	–	–
313.15 K, x2 = 0.2135	874.07	–	1.4093	0.497
313.15 K, x2 = 0.2714	–	160.6	–	–
313.15 K, x2 = 0.3285	898.41	–	1.4171	0.566
313.15 K, x2 = 0.3775	–	159.9	–	–
313.15 K, x2 = 0.4268	920.49	–	1.4237	0.64
313.15 K, x2 = 0.4881	–	158.9	–	–
313.15 K, x2 = 0.502	938.3	–	1.4291	0.706
313.15 K, x2 = 0.5525	950.72	–	1.433	0.751
313.15 K, x2 = 0.5877	–	158.2	–	–
313.15 K, x2 = 0.5881	959.69	–	1.4357	0.786
313.15 K, x2 = 0.6274	–	158	–	–
313.15 K, x2 = 0.6613	978.86	–	1.4415	0.872
313.15 K, x2 = 0.6833	–	157.4	–	–
313.15 K, x2 = 0.7441	1001.63	–	1.4484	0.997
313.15 K, x2 = 0.7593	–	156.7	–	–
313.15 K, x2 = 0.8488	1032.24	–	1.4572	1.162
313.15 K, x2 = 0.8558	–	155.7	–	–
313.15 K, x2 = 0.9343	–	154.5	–	–
313.15 K, x2 = 0.9474	1063.08	–	1.4666	1.374
313.15 K, x2 = 0.9687	–	154.1	–	–

C1CCOCC1 [tetrahydropyran] + C[S+](C)[O-]
Details	mass density, [3] [kg/m3]	molar heat capacity at constant pressure, [1] [J/K/mol]	refractive index, [2]	viscosity, [3] [mPa·s]
293.15 K, x2 = 0.073	895.7	–	1.4268	0.906
293.15 K, x2 = 0.0996	–	148.8	–	–
293.15 K, x2 = 0.1171	903.11	–	1.4288	0.931
293.15 K, x2 = 0.1317	–	149.7	–	–
293.15 K, x2 = 0.2176	920.63	–	1.4336	1.005
293.15 K, x2 = 0.2636	–	153	–	–
293.15 K, x2 = 0.3108	937.76	–	1.4383	1.082
293.15 K, x2 = 0.3636	–	154.6	–	–
293.15 K, x2 = 0.4069	956.42	–	1.4433	1.173
293.15 K, x2 = 0.4832	–	155.9	–	–
293.15 K, x2 = 0.4982	975.18	–	1.4483	1.274
293.15 K, x2 = 0.5309	–	156	–	–
293.15 K, x2 = 0.5763	–	155.8	–	–
293.15 K, x2 = 0.5786	992.6	–	1.4528	1.377
293.15 K, x2 = 0.6227	1002.56	–	1.4554	1.433
293.15 K, x2 = 0.6527	1009.49	–	1.4573	1.476
293.15 K, x2 = 0.6773	–	155.5	–	–
293.15 K, x2 = 0.7338	1028.89	–	1.4624	1.605
293.15 K, x2 = 0.7586	–	154.7	–	–
293.15 K, x2 = 0.8085	1047.69	–	1.4673	1.75
293.15 K, x2 = 0.8412	–	153.7	–	–
293.15 K, x2 = 0.9237	–	152	–	–
293.15 K, x2 = 0.9321	1080.93	–	1.4761	2.022
293.15 K, x2 = 0.9579	–	151.4	–	–
303.15 K, x2 = 0.0996	–	152.5	–	–
303.15 K, x2 = 0.1175	893.4	–	1.4226	0.804
303.15 K, x2 = 0.1317	–	153.1	–	–
303.15 K, x2 = 0.2209	911.49	–	1.4275	0.865
303.15 K, x2 = 0.2636	–	155	–	–
303.15 K, x2 = 0.3113	928.13	–	1.4322	0.925
303.15 K, x2 = 0.3636	–	156.1	–	–
303.15 K, x2 = 0.411	947.52	–	1.4375	1.001
303.15 K, x2 = 0.4832	–	156.6	–	–
303.15 K, x2 = 0.4945	964.64	–	1.4422	1.078
303.15 K, x2 = 0.5309	–	156.8	–	–
303.15 K, x2 = 0.5341	973.08	–	1.4444	1.112
303.15 K, x2 = 0.5763	–	156.5	–	–
303.15 K, x2 = 0.5869	984.64	–	1.4477	1.168
303.15 K, x2 = 0.6597	1001.27	–	1.4522	1.25
303.15 K, x2 = 0.6773	–	156	–	–
303.15 K, x2 = 0.7348	1019.24	–	1.4571	1.345
303.15 K, x2 = 0.7586	–	155.5	–	–
303.15 K, x2 = 0.8105	1038.27	–	1.4621	1.453
303.15 K, x2 = 0.8412	–	154.6	–	–
303.15 K, x2 = 0.876	1055.53	–	1.4666	1.563
303.15 K, x2 = 0.9237	–	153.2	–	–
303.15 K, x2 = 0.9393	1072.96	–	1.471	1.679
303.15 K, x2 = 0.9579	–	152.9	–	–
313.15 K, x2 = 0.07165	875.38	–	1.4152	0.681
313.15 K, x2 = 0.0996	–	157.1	–	–
313.15 K, x2 = 0.1195	883.44	–	1.4173	0.701
313.15 K, x2 = 0.1317	–	157.7	–	–
313.15 K, x2 = 0.2128	899.76	–	1.422	0.745
313.15 K, x2 = 0.2636	–	159.3	–	–
313.15 K, x2 = 0.3143	918.44	–	1.4272	0.803
313.15 K, x2 = 0.3636	–	160	–	–
313.15 K, x2 = 0.4102	937.09	–	1.4323	0.863
313.15 K, x2 = 0.4832	–	160.5	–	–
313.15 K, x2 = 0.4969	954.93	–	1.4375	0.927
313.15 K, x2 = 0.5309	–	160.3	–	–
313.15 K, x2 = 0.5311	962.23	–	1.4394	0.953
313.15 K, x2 = 0.5763	–	160.1	–	–
313.15 K, x2 = 0.5865	974.36	–	1.4429	0.997
313.15 K, x2 = 0.6595	991.06	–	1.4474	1.063
313.15 K, x2 = 0.6773	–	159.3	–	–
313.15 K, x2 = 0.7295	1007.8	–	1.452	1.136
313.15 K, x2 = 0.7586	–	158.5	–	–
313.15 K, x2 = 0.8349	1034.54	–	1.4592	1.26
313.15 K, x2 = 0.8412	–	157.3	–	–
313.15 K, x2 = 0.9237	–	155.8	–	–
313.15 K, x2 = 0.938	1062.5	–	1.4663	1.405
313.15 K, x2 = 0.9579	–	155.1	–	–
